# From patent publication US9199978B2, “Acrylamide compounds and use thereof for inhibiting apoptosis” (CHINESE PLA GENERAL HOSPITAL, priority 2010, dated 2015)
# What was measured:
# Assay type in all cases: cell-based, Wistar sucking mice
# cardiomyocytes = test: Measurement of cell inhibition rate (MTT) on normal primary cardiomyocytes; conditions: 48 h; for inhibition at 300 µM: Cardiomyocyte; for Inhibition rate (%) of cardiomyocytes: 300 μM
# Protocol: (§1) The isolation and culture of cardiomyocytes were performed by referring to the differential adhesion method (Kreider, A. Messing, H. Doan, S. U. Kim, R. P. Lisak and D. E. Pleasure, Enrichment of Schwann cell cultures from neonatal rat sciatic nerve by differential adhesion, Brain Res 2 (1981), pp. 433-444). Wistar sucking mice newborn within 24 h were used, sterilized at skin of ventrum with iodine tincture and ethanol, subjected to thoracotomy using scissors at subxiphoid median line with a deviation to left, heart was taken out after slant thoracotomy and placed in PBS precooled with ice; the heart was softly blown and beaten with 0.01 M PBS to remove blood cells and other tissues, then cut into pieces with 0.5 mm^3 size, washed with 0.01 M PBS repeatedly for 2-3 times; the pieces were placed in conical flask, added with 4 ml of 0.125% pancretin, 1 ml of 0.1% collagenase II (final concentrations separately being 0.1% and 0.02%), shaken in 37° C. water bath for 10 min, the supernatant was discarded; then 4 ml of 0.125% pancretin and 1 ml of 0.1% collagenase II again, shaken in 37° C. water bath for digestion for 10 min, the supernatant was sucked and transferred to a centrifuge tube, and the supernatant was added with DMEM containing 10% FBS to terminate digestion; the step of shaking and digestion in water bath was repeated for 3-4 times, until the tissue pieces were completely digested; the collected cell suspension was centrifuged under 1000 rpm for 10 min, the supernatant was removed, then a culture medium was added for resuspension; the resuspended cells were inoculated in a cell culture flask, placed in CO2 incubator at 37° C. for incubation for 1.5 h, then the culture medium was sucked out, countered under microscope, then DMEM culture medium containing 10% FBS was used to adjust cell density, inoculated in an amount of 1×10^4 to a 96-well plate, placed in 5% CO2 incubator at 37° C. for 24 h, then half medium was replaced, a culture medium containing 0.1% Brdu was supplementally added; then the medium was replaced once per 48 h, and primary cardiomyocytes were obtained after 4 days of cultivation.
# The isolated primary culture of cardiomyocytes was inoculated in an amount of 10^4 cells per well to a 96-well plate, and the volume of each well was 100 μl (marginal wells were filled with sterile PBS). […] After continuous inoculation for 48 h, each well was added with 20 μl of MTT solution (5 mg/ml, formulated with PBS (pH=7.4), i.e., 0.5% MTT), and the cultivation was continued for 4 h. After the end of cultivation, culture medium in wells was carefully sucked out. Each well was added with 150 μl of DMSO, shaken at a low speed in a shaking table for 10 min, so that the crystal was sufficiently dissolved. The optical density (OD) value of each well was measured at wavelength of 550 nm by enzyme-linked immunoassay instrument, and each well was repeatedly measured for 5 times and the results were recorded.
# [1] = test system: TG-induced cardiomyocytes apoptosis; test: Protection against TG-induced cardiomyocyte apoptosis (MTT)
# Protocol: as §1
# The isolated primary culture of cardiomyocytes was inoculated in an amount of 10^4 cells per well to a 96-well plate, and the volume of each well was 100 μl (marginal wells were filled with sterile PBS). After being cultivated in 5% CO2 and 37° C. incubator for 4 d, they were added with the compound of Formula I at different concentrations (0.3 μM, 1 μM, 3 μM, 10 μM, 30 μM, 100 μM), 3 double-wells were set for each concentration, at the same time, zero setting wells (culture medium, MTT, DMSO), and control wells (culture medium, DMSO) were also set. After continuous inoculation for 48 h, each well was added with 20 μl of MTT solution (5 mg/ml, formulated with PBS (pH=7.4), i.e., 0.5% MTT), and the cultivation was continued for 4 h. After the end of cultivation, culture medium in wells was carefully sucked out. Each well was added with 150 μl of DMSO, shaken at a low speed in a shaking table for 10 min, so that the crystal was sufficiently dissolved. The optical density (OD) value of each well was measured at wavelength of 550 nm by enzyme-linked immunoassay instrument, and each well was repeatedly measured for 5 times and the results were recorded.
# Cardiomyocytes were subjected to the primary culture for 4 days according to the above method, and then added with thapsigargin (TG) to induce apoptosis. The compound of the present invention was added for pretreatment 30 min before inducing apoptosis. […] TG was formulated with DMSO, the mother liquid was of 4 mM; and the compound of the present invention was formulated with DMSO, and the mother liquid was of 150 mM. The cell survival rate was measured according to the above MTT method, so as to test the protection effects of the compound of the present invention on the TG-induced cardiomyocytes apoptosis, and the results are shown in Table 2. […]
# [2] = test system: cardiomyocyte apoptosis induced by anoxia; test: Protection against anoxia-induced cardiomyocyte apoptosis (HCS fluorescence staining); conditions: for Nucleus area (%): Hoechst staining; for Mitochondrial transmembrane potential: MitoTracker Red
# Protocol: as §1
# Cardiomyocyte was obtained by primary culture according to Example 18, cell density 10^4/mL, each wall was added with 100 μL of suspension of the cells. The cells were incubated at 37° C., 5% CO2 environment for 96 h (replacing solution once per 48 h). After primary culture for 4 days, cell apoptosis was induced by placing in an anoxia incubator, the compounds of the present invention at different concentrations were added for pretreatment 30 min before inducing cell apoptosis, then placed in 37° C., 5% CO2-95% N2 incubator and cultured for 15.5 h. It was 30 min before the compound incubation finished, 50 μL of culture medium, 50 μL of Mitotracker/Hoechst solution, were added, and the cells were then continuously cultured at 37° C., 5% CO2-95% N2 for 30 min.
# Each well was directly added with 100 μL of fixing solution, without sucking out the culture medium, incubated at room temperature in fume cupboard for 10 min. The pre-heated fixing solution was very important for keeping cell integrity.
# The solution of each well was sucked out (the plate could be turned over), washed with 1× Wash Buffer (100 μL/well) once. Carefulness was kept during operation and washing procedure to maintain cell adhesion and integrity. Good results could be obtained by slowly sucking and releasing liquid. Wash Buffer was sucked out, 1× penetrating membrane solution (100 uL/well) was added, incubated at room temperature for 15 min. The penetrating membrane solution was sucked out, each well was washed once with 100 μL/well of 1× Wash Buffer. The Wash Buffer was sucked out, each well was added with 50 μL of Alexa Fluor 488 Phalloidin Solution, incubated at room temperature in dark for 30 min. The Alexa Fluor 488 Phalloidin solution was sucked out, washed with 1× Wash Buffer for three times, and the solution of the last time was kept in the well. […]
# [3] = compound 0.3 μM + TG 0.4 uM, pretreatment 30 min
# [4] = compound 1 μM + TG 0.4 uM, pretreatment 30 min
# [5] = compound 3 μM + TG 0.4 uM, pretreatment 30 min
# [6] = compound 10 μM + TG 0.4 uM, pretreatment 30 min
molecule,measurement,setting,value
"O=C(/C=C/c1cccs1)NC(NC(=S)NCc1ccccc1)C(Cl)(Cl)Cl (stereo not drawn) [Example 5, (2E)-3-(2-thienyl)-N-(1-benzylaminothioformylamino-2,2,2-trichloroethyl)-2-acrylamide]",inhibition at 300 µM,cardiomyocytes,0.76 ± 4.04%
same,Survival rate (%) of Cardiomyocyte,[1]; [3],82 ± 4%
same,Survival rate (%) of Cardiomyocyte,[1]; [4],76 ± 8%
same,Survival rate (%) of Cardiomyocyte,[1]; [5],74 ± 9%
same,light flux,[2]; 0.3 μM,1331.12 ± 53.30
same,Nucleus area (%),[2]; 0.3 μM,120.23 ± 5.49%
same,Mitochondrial transmembrane potential,[2]; 0.3 μM,117.76 ± 1.87
"COC(=O)c1ccccc1NC(=S)NC(NC(=O)/C=C/c1cccs1)C(Cl)(Cl)Cl (stereo not drawn) [Example 10, (2E)-3-(2-thienyl)-N-[1-(2-methoxyformylanilino)thioformylamino-2,2,2-trichloroethyl]-2-acrylamide]",inhibition at 300 µM,cardiomyocytes,3.24 ± 1.7%
"CS/C(=N\C(NC(=O)/C=C/c1cccs1)C(Cl)(Cl)Cl)Nc1cccc2cccnc12 (stereo not drawn) [Example 14, (2E)-3-(2-thienyl)-N-[1-(8-quinolylamino)methylthiomethenylamino-2,2,2-trichloroethyl]-2-acrylamide]",inhibition at 300 µM,cardiomyocytes,8.34 ± 5.78%
"CC(C)NC(=S)NC(NC(=O)/C=C/c1cccs1)C(Cl)(Cl)Cl (stereo not drawn) [Example 7, (2E)-3-(2-thienyl)-N-[1-isopropylaminothioformylamino-2,2,2-trichloroethyl]-2-acrylamide]",inhibition at 300 µM,cardiomyocytes,1.32 ± 3.42%
same,Survival rate (%) of Cardiomyocyte,[1]; [4],69 ± 5%
same,Survival rate (%) of Cardiomyocyte,[1]; [5],70 ± 8%
same,Survival rate (%) of Cardiomyocyte,[1]; [6],77 ± 11%
"O=C(/C=C/c1cccs1)NC(NC(=S)NC1CCCCCC1)C(Cl)(Cl)Cl (stereo not drawn) [Example 11, (2E)-3-(2-thienyl)-N-(1-cycloheptylaminothioformylamino-2,2,2-trichloroethyl)-2-acrylamide]",inhibition at 300 µM,cardiomyocytes,7.62 ± 5.77%
"O=C(/C=C/c1cccs1)NC(NC(=S)Nc1cccc2cccnc12)C(Cl)(Cl)Cl (stereo not drawn) [Example 1, (2E)-3-(2-thienyl)-N-[1-(8-quinolylamino)thioformylamino-2,2,2-trichloroethyl]-2-acrylamide]",light flux,[2]; 10 μM,1201.92 ± 29.95
same,Nucleus area (%),[2]; 10 μM,112.61 ± 7.78%
same,Mitochondrial transmembrane potential,[2]; 10 μM,112.68 ± 1.46
"O=C(/C=C/c1cccs1)NC(NC(=S)NC1CCCCC1)C(Cl)(Cl)Cl (stereo not drawn) [Example 6, (2E)-3-(2-thienyl)-N-(1-cyclohexylaminothio formylamino-2,2,2-trichloroethyl)-2-acrylamide]",inhibition at 300 µM,cardiomyocytes,5.54 ± 3.61%
same,Survival rate (%) of Cardiomyocyte,[1]; [4],76 ± 7%
same,Survival rate (%) of Cardiomyocyte,[1]; [5],70 ± 6%
same,Survival rate (%) of Cardiomyocyte,[1]; [6],78 ± 9%
same,light flux,[2]; 1 μM,1077.08 ± 55.63
same,Nucleus area (%),[2]; 1 μM,100.00 ± 4.63%
same,Mitochondrial transmembrane potential,[2]; 1 μM,112.92 ± 0.82
"COc1ccccc1NC(=S)NC(NC(=O)/C=C/c1cccs1)C(Cl)(Cl)Cl (stereo not drawn) [Example 4, (2E)-3-(2-thienyl)-N-[1-(2-methoxyanilino)thioformylamino-2,2,2-trichloroethyl]-2-acrylamide]",inhibition at 300 µM,cardiomyocytes,5.55 ± 2.29%
"(2E)-3-(2-thienyl)-N-[1-(1-morpholinyl)thioformyl amino-2,2,2-trichloroethyl]-2-acrylamide [Example 12]",Inhibition rate (%) of cardiomyocytes,cardiomyocytes,10.44 ± 5.66%
same,Survival rate (%) of Cardiomyocyte,[1]; [3],79 ± 7%
same,Survival rate (%) of Cardiomyocyte,[1]; [4],80 ± 9%
same,Survival rate (%) of Cardiomyocyte,[1]; [5],83 ± 11%
same,Nucleus area (%),[2]; 10 μM,102.93 ± 5.12%
same,Mitochondrial transmembrane potential,[2]; 10 μM,133.11 ± 6.30
"C/C=C(/C)C(=O)O[C@H]1C(C)=C2[C@H]([C@@H]1OC(=O)CCCCCCC)[C@@](C)(OC(C)=O)C[C@H](OC(=O)CCC)[C@@]1(O)[C@H]2OC(=O)[C@@]1(C)O [TG, thapsigargin, reference compound]",Survival rate (%) of Cardiomyocyte,[1]; TG alone 0.4 uM (apoptosis inducer),59 ± 1.1%
"CC(C)OCCCNC(=S)NC(NC(=O)/C=C/c1cccs1)C(Cl)(Cl)Cl (stereo not drawn) [Example 9, (2E)-3-(2-thienyl)-N-[1-(3-isopropoxypropylamino)thioformylamino-2,2,2-trichloroethyl]-2-acrylamide]",inhibition at 300 µM,cardiomyocytes,5.3 ± 0.95%
"O=C(/C=C/c1cccs1)NC(NC(=S)Nc1ccccc1F)C(Cl)(Cl)Cl (stereo not drawn) [Example 8, (2E)-3-(2-thienyl)-N-[1-(2-fluoroanilino)thioformylamino-2,2,2-trichloroethyl]-2-acrylamide]",inhibition at 300 µM,cardiomyocytes,6.82 ± 1.21%
"(2E)-3-(2-thienyl)-N-[1-(4-methylpiperazinyl)thioformylamino-2,2,2-trichloroethyl]-2-acrylamide [Example 13]",Inhibition rate (%) of cardiomyocytes,cardiomyocytes,1.66 ± 2.70%
same,Survival rate (%) of Cardiomyocyte,[1]; [3],72 ± 3%
same,Survival rate (%) of Cardiomyocyte,[1]; [4],71 ± 3%
same,Survival rate (%) of Cardiomyocyte,[1]; [5],67 ± 3%
same,Mitochondrial transmembrane potential,[2]; 3 μM,116.41 ± 0.64
